Assay results from EP4321162A1 (priority 2022, dated 2024).

How the values were obtained:
SARS-CoV-2 = tested on: SARS-CoV-2; set-up: species or system K18-hACE2 mice; settings: mouse, in vivo
Calu-3 2B4 cells = settings: uninfected Calu-3 2B4 cells, 1-50 µM tested, 48 h

With `CC(C)(C)c1cc(C(C)(C)C)c(NC(=O)c2c[nH]c3ccccc3c2=O)cc1O` [VX770, N-(2,4-ditert-butyl-5-hydroxyphenyl)-4-oxo-1H-quinoline-3-carboxamide] the “protection levels (survival)” value (SARS-CoV-2) was 40% and the “cytotoxicity of the administered concentrations (cell viability, MTT)” value (Calu-3 2B4 cells) was “non-toxic”.

With `Cc1ccc(NC(=O)C2(c3ccc4c(c3)OC(F)(F)O4)CC2)nc1-c1cccc(C(=O)O)c1` [VX809, 3-[6-[[1-(2,2-difluoro-1,3-benzodioxol-5-yl)cyclopropanecarbonyl]amino]-3-methylpyridin-2-yl]benzoic acid] the “protection levels (survival)” value (SARS-CoV-2) was 20% and the “cytotoxicity of the administered concentrations (cell viability, MTT)” value (Calu-3 2B4 cells) was “non-toxic”.
